# From BindingDB's records for doi:10.1021/jm00018a020 (Centre De Recherche Pierre Fabre, 1995)
# Biological target: 5-hydroxytryptamine receptor 1B (Homo sapiens) (UniProt P28222)
# Assay: Binding affinity for cloned human 5-hydroxytryptamine 1D receptor beta
# 5-hydroxytryptamine receptor 1B (Homo sapiens), sequence (P28222 whole entry, looked up): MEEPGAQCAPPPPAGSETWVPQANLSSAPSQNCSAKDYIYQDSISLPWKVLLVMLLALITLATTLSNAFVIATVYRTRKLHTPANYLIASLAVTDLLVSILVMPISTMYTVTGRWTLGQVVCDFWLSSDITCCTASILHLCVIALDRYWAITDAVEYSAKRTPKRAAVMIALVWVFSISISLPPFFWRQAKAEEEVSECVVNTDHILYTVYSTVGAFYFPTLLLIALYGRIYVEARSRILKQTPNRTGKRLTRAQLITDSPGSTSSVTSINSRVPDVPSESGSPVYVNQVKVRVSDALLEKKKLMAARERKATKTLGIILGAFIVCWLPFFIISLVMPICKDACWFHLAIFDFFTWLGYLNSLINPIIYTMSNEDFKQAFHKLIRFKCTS
row,Structure (SMILES),Ki [nM]
1,NCCc1c[nH]c2ccc(OCCCCCC(=O)N3CCN(c4ccc([N+](=O)[O-])cc4)CC3)cc12 [6-[3-(2-Amino-ethyl)-1H-indol-5-yloxy]-1-[4-(4-nitro-phenyl)-piperazin-1-yl]-hexan-1-one],0.47
2,CN(C)S(=O)(=O)Nc1ccc(N2CCN(C(=O)COc3ccc4[nH]cc(CCN)c4c3)CC2)cc1,1.9
3,NCCc1c[nH]c2ccc(OCC(=O)N3CCN(c4ccc(N)cc4)CC3)cc12 [2-[3-(2-Amino-ethyl)-1H-indol-5-yloxy]-1-[4-(4-amino-phenyl)-piperazin-1-yl]-ethanone],1.6
4,CN(C)CCc1c[nH]c2ccc(C[C@H]3COC(=O)N3)cc12 [(S)-4-((3-(2-(dimethylamino)ethyl)-1H-indol-5-yl)methyl)oxazolidin-2-one],4
5,NCCc1c[nH]c2ccc(OCC(=O)N3CCN(c4ccc(CN)cc4)CC3)cc12 [2-[3-(2-Amino-ethyl)-1H-indol-5-yloxy]-1-[4-(4-aminomethyl-phenyl)-piperazin-1-yl]-ethanone],2.5
6,NCCc1c[nH]c2ccc(OCC(=O)N3CCN(c4ccc(NC(=O)c5ccccc5)cc4)CC3)cc12 [N-[4-(4-{2-[3-(2-Amino-ethyl)-1H-indol-5-yloxy]-acetyl}-piperazin-1-yl)-phenyl]-benzamide],1.3
7,CS(=O)(=O)NCc1ccc(N2CCN(C(=O)COc3ccc4[nH]cc(CCN)c4c3)CC2)cc1 [N-[4-(4-{2-[3-(2-Amino-ethyl)-1H-indol-5-yloxy]-acetyl}-piperazin-1-yl)-benzyl]-methanesulfonamide],2.2
8,CS(=O)(=O)Nc1ccc(N2CCN(C(=O)CCCCCOc3ccc4[nH]cc(CCN)c4c3)CC2)cc1 [N-[4-(4-{6-[3-(2-Amino-ethyl)-1H-indol-5-yloxy]-hexanoyl}-piperazin-1-yl)-phenyl]-methanesulfonamide],1.4
9,CS(=O)(=O)Nc1ccc(N2CCN(C(=O)COc3ccc4[nH]cc(CCN)c4c3)CC2)cc1 [N-[4-(4-{2-[3-(2-Amino-ethyl)-1H-indol-5-yloxy]-acetyl}-piperazin-1-yl)-phenyl]-methanesulfonamide],2.7
10,NCCc1c[nH]c2ccc(OCCCCC(=O)N3CCN(c4ccc([N+](=O)[O-])cc4)CC3)cc12 [5-[3-(2-Amino-ethyl)-1H-indol-5-yloxy]-1-[4-(4-nitro-phenyl)-piperazin-1-yl]-pentan-1-one],1.8
11,N#Cc1ccccc1N1CCN(C(=O)COc2ccc3[nH]cc(CCN)c3c2)CC1 [2-(4-{2-[3-(2-Amino-ethyl)-1H-indol-5-yloxy]-acetyl}-piperazin-1-yl)-benzonitrile],0.39
12,NCCc1c[nH]c2ccc(OCC(=O)N3CCN(c4ccccc4)CC3)cc12 [2-[3-(2-Amino-ethyl)-1H-indol-5-yloxy]-1-(4-phenyl-piperazin-1-yl)-ethanone],0.4
13,NCCc1c[nH]c2ccc(OCC(=O)N3CCN(c4ccc([N+](=O)[O-])cc4)CC3)cc12 [2-[3-(2-Amino-ethyl)-1H-indol-5-yloxy]-1-[4-(4-nitro-phenyl)-piperazin-1-yl]-ethanone],0.83
14,CS(=O)(=O)NCc1ccccc1N1CCN(C(=O)COc2ccc3[nH]cc(CCN)c3c2)CC1 [N-[2-(4-{2-[3-(2-Amino-ethyl)-1H-indol-5-yloxy]-acetyl}-piperazin-1-yl)-benzyl]-methanesulfonamide],0.53
15,NCCc1c[nH]c2ccc(OCCCCCC(=O)N3CCN(c4ccc(N)cc4)CC3)cc12 [6-[3-(2-Amino-ethyl)-1H-indol-5-yloxy]-1-[4-(4-amino-phenyl)-piperazin-1-yl]-hexan-1-one],0.31
16,NCCc1c[nH]c2ccc(OCC(=O)N3CCN(c4ccccc4CN)CC3)cc12 [2-[3-(2-Amino-ethyl)-1H-indol-5-yloxy]-1-[4-(2-aminomethyl-phenyl)-piperazin-1-yl]-ethanone],1.8
17,NCCc1c[nH]c2ccc(OCCCC(=O)N3CCN(c4ccc([N+](=O)[O-])cc4)CC3)cc12 [4-[3-(2-Amino-ethyl)-1H-indol-5-yloxy]-1-[4-(4-nitro-phenyl)-piperazin-1-yl]-butan-1-one],5
18,NCCc1c[nH]c2ccc(OCC(=O)N3CCN(c4ccccc4[N+](=O)[O-])CC3)cc12 [2-[3-(2-Amino-ethyl)-1H-indol-5-yloxy]-1-[4-(2-nitro-phenyl)-piperazin-1-yl]-ethanone],0.3
